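Method: 48-hour compound exposure of cells in 96-well plates, five concentrations, linear interpolation of endpoints. GI50 is the concentration that inhibits growth by half. TGI: concentration producing complete growth inhibition.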
What was measured:
Assay in all cases: inhibition of tumour cell growth, NCI panel, 48 h
[1] = system: NCI-H522 lung
[2] = system: SNB-19 CNS
[3] = system: SF-539 CNS
[4] = system: SK-OV-3 ovarian
[5] = system: BT-549 breast
[6] = system: NCI-H23 lung
[7] = system: A549 NSCLC
[8] = system: HOP-62 NSCLC
[9] = system: SN12C renal
[10] = system: CAKI-1 renal
[11] = system: SF-295 CNS
[12] = system: NCI-H226 lung
[13] = system: IGROV1 ovarian
[14] = system: COLO 205 colon
[15] = system: OVCAR-3 ovarian
[16] = system: MCF7 breast
[17] = system: HCC-2998 colon
[18] = system: CCRF-CEM leukemia
[19] = system: K-562 leukemia
[20] = system: NCI/ADR-RES ovarian
[21] = system: UO-31 renal
[22] = system: PC-3 prostate
[23] = system: SF-268 CNS
[24] = system: MOLT-4 leukemia
[25] = system: 786-0 renal
[26] = system: HL-60(TB) leukemia
[27] = system: M14 melanoma
[28] = system: HCT-15 colon
[29] = system: MDA-N
[30] = system: HT29 colon
[31] = system: OVCAR-5 ovarian
[32] = system: SK-MEL-5 melanoma
[33] = system: NCI-H460 lung
[34] = system: SK-MEL-2 melanoma
[35] = system: SNB-75 CNS
[36] = system: UACC-257 melanoma
[37] = system: RXF 393 renal
[38] = system: RPMI-8226 leukemia
[39] = system: SR leukemia
[40] = system: KM12 colon
[41] = system: SW-620 colon
[42] = system: U251 CNS
[43] = system: OVCAR-4 ovarian
[44] = system: EKVX NSCLC
[45] = system: UACC-62 melanoma
[46] = system: HCT-116 colon
[47] = system: SK-MEL-28 melanoma
[48] = system: TK-10 renal
[49] = system: DU-145 prostate
[50] = system: ACHN renal
[51] = system: OVCAR-8 ovarian
[52] = system: MALME-3M melanoma
[53] = system: MDA-MB-231 breast
[54] = system: LOX IMVI melanoma
[55] = system: A498 renal
[56] = system: HOP-92 NSCLC
[57] = system: MDA-MB-435
[58] = system: T-47D breast
[59] = system: HS 578T breast

What does the source list for O=C(/C=C/c1ccccc1)CSc1ncn[nH]1?
TGI [1]: > 100 µM; TGI [2]: > 100 µM; TGI [3]: > 100 µM; TGI [4]: > 100 µM; TGI [5]: > 100 µM; TGI [6]: > 100 µM; TGI [7]: > 100 µM; TGI [8]: > 100 µM; TGI [9]: > 100 µM; TGI [10]: > 100 µM; TGI [11]: > 100 µM; TGI [12]: > 100 µM; TGI [13]: > 100 µM; TGI [14]: > 100 µM; TGI [15]: > 100 µM; TGI [16]: > 100 µM; TGI [17]: > 100 µM; TGI [18]: > 100 µM; TGI [19]: > 100 µM; TGI [20]: > 100 µM; TGI [21]: > 100 µM; TGI [22]: > 100 µM; TGI [23]: > 100 µM; TGI [24]: > 100 µM; TGI [25]: > 100 µM; TGI [26]: > 100 µM; TGI [27]: > 100 µM; TGI [28]: > 100 µM; TGI [29]: > 100 µM; TGI [30]: > 100 µM; TGI [31]: > 100 µM; TGI [32]: > 100 µM; TGI [33]: > 100 µM; TGI [34]: > 100 µM; TGI [35]: > 100 µM; TGI [36]: > 100 µM; TGI [37]: > 100 µM; TGI [38]: > 100 µM; TGI [39]: > 100 µM; TGI [40]: > 100 µM; TGI [41]: > 100 µM; TGI [42]: > 100 µM; TGI [43]: > 100 µM; TGI [44]: > 100 µM; TGI [45]: > 100 µM; TGI [46]: > 100 µM; TGI [47]: > 100 µM; TGI [48]: > 100 µM; TGI [49]: > 100 µM; TGI [50]: > 100 µM; TGI [51]: > 100 µM; TGI [52]: > 100 µM

Cc1ncc(C(=O)Nc2ccc(CN3CCN(C)CC3)c(C(F)(F)F)c2)cc1C#Cc1cnc2cccnn12 was tested. Which GI50 [1] did it give?
Its GI50 is 0.58 µM.

What about the TGI [1] of the same molecule?
The TGI was 2.4 µM.

What about the GI50 [2] of the same molecule?
Its GI50 is 1.22 µM.

What about the TGI [2] of the same molecule?
The TGI was 5.63 µM.

And the GI50 [3]?
Its GI50 is 0.485 µM.

What about the TGI [3] of the same molecule?
The TGI was 1.18 µM.

And the GI50 [53]?
The GI50 was 0.205 µM.

And the TGI [53]?
The TGI was 4.15 µM.

What about the GI50 [4] of the same molecule?
The GI50 was 1.63 µM.

And the TGI [4]?
The TGI was 7.19 µM.

And the GI50 [5]?
The GI50 was 1.23 µM.

What about the TGI [5] of the same molecule?
Its TGI is 3.72 µM.

What about the GI50 [6] of the same molecule?
Its GI50 is 0.221 µM.

And the TGI [6]?
The TGI was 1.01 µM.

What about the GI50 [7] of the same molecule?
Its GI50 is 0.32 µM.

What about the TGI [7] of the same molecule?
The TGI was 1.53 µM.

And the GI50 [8]?
The GI50 was 0.423 µM.

What about the TGI [8] of the same molecule?
Its TGI is 4.14 µM.

What about the GI50 [9] of the same molecule?
The GI50 was 0.288 µM.

What about the TGI [9] of the same molecule?
The TGI was 3.94 µM.

And the GI50 [10]?
Its GI50 is 0.365 µM.

And the TGI [10]?
The TGI was 2.82 µM.

What about the GI50 [11] of the same molecule?
The GI50 was 1.01 µM.

What about the TGI [11] of the same molecule?
Its TGI is 4.71 µM.

What about the GI50 [12] of the same molecule?
The GI50 was 0.204 µM.

And the TGI [12]?
Its TGI is 1.37 µM.

What about the GI50 [13] of the same molecule?
Its GI50 is 0.268 µM.

What about the TGI [13] of the same molecule?
Its TGI is 4.45 µM.

What about the GI50 [14] of the same molecule?
The GI50 was 0.2 µM.

And the TGI [14]?
The TGI was 1.31 µM.

What about the GI50 [15] of the same molecule?
The GI50 was 0.643 µM.

And the TGI [15]?
The TGI was 2.52 µM.

And the GI50 [16]?
The GI50 was 0.136 µM.

And the TGI [16]?
The TGI was 0.663 µM.

What about the GI50 [17] of the same molecule?
The GI50 was 0.446 µM.

What about the TGI [17] of the same molecule?
The TGI was 4.28 µM.

What about the GI50 [18] of the same molecule?
The GI50 was 0.199 µM.

What about the TGI [18] of the same molecule?
The TGI was 20.7 µM.

And the GI50 [19]?
The GI50 was 0.005 µM.

And the TGI [19]?
Its TGI is 50 µM.

What about the GI50 [20] of the same molecule?
Its GI50 is 0.997 µM.

What about the TGI [20] of the same molecule?
Its TGI is 4.09 µM.

And the GI50 [54]?
The GI50 was 0.183 µM.

What about the TGI [54] of the same molecule?
Its TGI is 0.672 µM.

What about the GI50 [21] of the same molecule?
The GI50 was 0.242 µM.

What about the TGI [21] of the same molecule?
Its TGI is 1.91 µM.

What about the GI50 [22] of the same molecule?
Its GI50 is 0.651 µM.

And the TGI [22]?
Its TGI is 4.79 µM.

What about the GI50 [23] of the same molecule?
Its GI50 is 0.622 µM.

What about the TGI [23] of the same molecule?
Its TGI is 2.59 µM.

What about the GI50 [24] of the same molecule?
The GI50 was 0.156 µM.

And the TGI [24]?
The TGI was 5.32 µM.

And the GI50 [55]?
The GI50 was 0.703 µM.

And the TGI [55]?
The TGI was 1.47 µM.

And the GI50 [25]?
The GI50 was 1.05 µM.

And the TGI [25]?
Its TGI is 3.16 µM.

And the GI50 [26]?
Its GI50 is 0.195 µM.

And the TGI [26]?
The TGI was 1.17 µM.

What about the GI50 [56] of the same molecule?
Its GI50 is 0.253 µM.

What about the TGI [56] of the same molecule?
The TGI was 2.87 µM.

And the GI50 [27]?
Its GI50 is 0.163 µM.

What about the TGI [27] of the same molecule?
The TGI was 0.732 µM.

What about the GI50 [57] of the same molecule?
Its GI50 is 0.243 µM.

And the TGI [57]?
The TGI was 1.48 µM.

And the GI50 [28]?
The GI50 was 0.593 µM.

And the TGI [28]?
Its TGI is 4.45 µM.

And the GI50 [30]?
Its GI50 is 0.199 µM.

What about the TGI [30] of the same molecule?
The TGI was 14.5 µM.

And the GI50 [58]?
Its GI50 is 1.91 µM.

What about the TGI [58] of the same molecule?
Its TGI is 12.3 µM.

And the GI50 [31]?
Its GI50 is 0.335 µM.

And the TGI [31]?
Its TGI is 5.84 µM.

And the GI50 [32]?
Its GI50 is 0.595 µM.

And the TGI [32]?
Its TGI is 1.26 µM.

What about the GI50 [33] of the same molecule?
The GI50 was 0.501 µM.

What about the TGI [33] of the same molecule?
The TGI was 1.53 µM.

What about the GI50 [34] of the same molecule?
The GI50 was 0.335 µM.

And the TGI [34]?
The TGI was 1.54 µM.

What about the GI50 [35] of the same molecule?
Its GI50 is 1.04 µM.

What about the TGI [35] of the same molecule?
Its TGI is 1.99 µM.

What about the GI50 [36] of the same molecule?
The GI50 was 0.531 µM.

And the TGI [36]?
Its TGI is 4.43 µM.

What about the GI50 [37] of the same molecule?
Its GI50 is 0.438 µM.

What about the TGI [37] of the same molecule?
Its TGI is 1.14 µM.

What about the GI50 [38] of the same molecule?
Its GI50 is 0.145 µM.

And the TGI [38]?
Its TGI is 1.29 µM.

And the GI50 [39]?
The GI50 was 0.293 µM.

And the TGI [39]?
The TGI was 50 µM.

What about the GI50 [40] of the same molecule?
The GI50 was 0.005 µM.

What about the TGI [40] of the same molecule?
The TGI was 2.64 µM.

And the GI50 [41]?
The GI50 was 0.239 µM.

And the TGI [41]?
The TGI was 2.59 µM.

And the GI50 [42]?
The GI50 was 0.727 µM.

And the TGI [42]?
Its TGI is 2.6 µM.

And the GI50 [43]?
Its GI50 is 0.205 µM.

And the TGI [43]?
Its TGI is 1.98 µM.

And the GI50 [44]?
The GI50 was 0.683 µM.

What about the TGI [44] of the same molecule?
The TGI was 2.9 µM.

And the GI50 [45]?
Its GI50 is 0.28 µM.

And the TGI [45]?
The TGI was 1.32 µM.

What about the GI50 [59] of the same molecule?
Its GI50 is 0.625 µM.

And the TGI [59]?
Its TGI is 3.3 µM.

What about the GI50 [46] of the same molecule?
Its GI50 is 0.178 µM.

What about the TGI [46] of the same molecule?
Its TGI is 0.743 µM.

What about the GI50 [47] of the same molecule?
The GI50 was 0.212 µM.

And the TGI [47]?
Its TGI is 1.84 µM.

And the GI50 [48]?
The GI50 was 0.797 µM.

And the TGI [48]?
Its TGI is 5.81 µM.

And the GI50 [49]?
The GI50 was 0.413 µM.

What about the TGI [49] of the same molecule?
Its TGI is 2.17 µM.

And the GI50 [50]?
Its GI50 is 0.287 µM.

And the TGI [50]?
Its TGI is 1.53 µM.

And the GI50 [51]?
Its GI50 is 0.339 µM.

And the TGI [51]?
The TGI was 5.98 µM.

And the GI50 [52]?
The GI50 was 0.0895 µM.

And the TGI [52]?
The TGI was 0.355 µM.

— PubChem BioAssay (NCI)
